Assay: in vitro
Details: human, hela cells, % viability

SMILES	viability at 28.5 h, 10 µM [%]
CC(=O)c1ccc(NC(=O)O[C@@H]2CO[C@H]3[C@@H]2OC[C@@H]3NC(=O)C2CCC2)cc1 [CBK289475]	89.3
O=C(CN1CCCCCC1)Nc1sc2c(c1C(=O)Nc1ccc(Br)cc1)CCC2 [CBK265076]	109
Nc1ncc(-c2ccccc2)nc1-c1ccc(O)cc1 [CBK064030]	96.7
COC(=O)C1CCN(Cc2ccc(-c3nnn(CC(=O)NCc4ccc(C)cc4)n3)cc2)C1 (centres unmarked) [CBK155406T]	105
Fc1ccc(-c2nccnc2OCc2ccccn2)cc1 [CBK106894]	99.6
N#Cc1c2ccccc2cn1Cc1cccc(Cl)c1 [CBK019531]	82.6
O=C(Nc1ccc2nc(-c3ccc(-c4nc5ccc(NC(=O)c6cccc7ccccc67)cc5[nH]4)cc3)[nH]c2c1)c1cccc2ccccc12 [CBK261160]	120
Cc1nonc1NC(=O)CSc1nc2ccccc2[nH]1 [CBK269273]	101
CCOC(=O)c1[nH]c2ccccc2c1NC(=O)Cc1c(Cl)cccc1Cl [CBK160132]	95.6
O=C1NN=C(CSCCO)Oc2ccccc21 [CBK006771]	88.5
Cc1nc(-c2ccc(NC(=O)CC(C)n3cccn3)cc2)cs1 (centres unmarked) [CBK281403]	98.4
COc1cc(CNc2ccc(N3CCCCC3)cc2)ccc1OCc1ccccc1F [CBK074472]	95.5
CCN1CCN(Cc2cc(Cl)ccc2OCCCn2ccnc2)CC1 [CBK306990]	83.2
CCOC(=O)N1CCC(NC(=O)N2CCN(c3ccc(F)cc3)CC2)CC1 [CBK156429]	106
CC(=O)c1ccc(-c2cc(Nc3ccc(O)cc3C)ncn2)s1 [CBK091052]	115
O=C(O)c1ccc(NC(=O)c2cc(S(=O)(=O)N3CCCCC3)cs2)cc1 [CBK265722]	101
Oc1ccc2nc(N[C@H]3CC4CCC3C4)sc2c1Cl (some centres unmarked) [CBK024348G]	62.1
CCN(Cc1ccncc1)C(=O)NCCN1CCOCC1 [CBK145055]	92.1
COC(=O)c1ccc2c(=O)n(CCc3ccc(S(N)(=O)=O)cc3)c(=S)[nH]c2c1 [CBK268238]	91.2
CCCCCC1=NN(C(=O)OCC)C(O)(C(F)(F)F)C1 (centres unmarked) [CBK027739]	94.9
Cn1cc(Cl)c(C2CCCCCN2S(=O)(=O)c2ccc3[nH]c(=O)[nH]c(=O)c3c2)n1 (centres unmarked) [CBK286408]	89.3
COc1ccc(C)cc1-n1ccc(C(=O)NC(C)(C)C(N)=O)n1 [CBK305789]	94.1
Cc1nc(NC(=O)Cn2c3c(c4ccccc42)CCC3)nn1C [CBK281377]	85.5

SMILES	viability at 28.5 h, 10 µM [%]
COc1ccc2ccccc2c1CNCCCN1CCOCC1 [CBK278209C]	93.8
Cc1ccc(S(=O)(=O)N(Cc2c(F)cccc2F)C2CCNCC2)cc1 [CBK163927T]	89.9
C=CCn1c(COc2cccc(Cl)c2)nnc1SCC(=O)O [CBK269389]	90.2
CC1(C)[C@H]2CC[C@]1(C)[C@@H](OCCNc1ccccc1)C2 [CBK021967]	87.8
CN(C)S(=O)(=O)N(CC(=O)N1CCN(Cc2ccc3c(c2)OCO3)CC1)c1ccccc1 [CBK267994]	102
Cc1ccc(-c2cncc(N3CCCC3CO)n2)cc1C (centres unmarked) [CBK065945]	89.1
O=C(NCC(O)c1ccccc1)c1ccc(Cl)c(S(=O)(=O)N2CCCCC2)c1 (centres unmarked) [CBK269197]	81
FC(F)(F)C1(NC2(C(Cl)(Cl)Cl)Oc3ccccc3O2)Oc2ccccc2O1 [CBK265544]	90.5
CC(=O)Nc1cccc(-c2cnc(Nc3ccc(N4CCOCC4)cc3)c3nccn23)c1 [CBK091235]	99.9
Cc1ccc(-n2nc(C(=O)O)c(C)c(C#N)c2=O)cc1C [CBK286987]	93.3
COc1ccc(NC(=O)CC2NC3CCCCC3NC2=O)cc1 (centres unmarked) [CBK266488]	89.7
Cc1nnc(SCC(=O)N/N=C/c2cc([N+](=O)[O-])ccc2O)n1-c1ccccc1 [CBK262768]	89.5
Cc1nnc(SCCCNC(=O)C2CC(=O)N(Cc3ccccn3)C2)s1 (centres unmarked) [CBK307529]	101
NS(=O)(=O)c1cccnc1NCc1ccccc1 [CBK288448]	85.7
Cc1ncc(CN2CCCC(Cc3nc4ccccc4[nH]3)C2)s1 (centres unmarked) [CBK281902]	99.7
O=C(O)c1ccc(NS(=O)(=O)c2ccc3c(c2)OCCO3)cc1 [CBK296129]	108
CCC(O)CNc1ccc(C(=O)N2CCC(N3CCOCC3)CC2)cn1 (centres unmarked) [CBK306865]	95.1
CC(=O)Nc1ccc(N2CC(C(=O)O)CC2=O)cc1 (centres unmarked) [CBK287149]	87.1
CCN(CC)C(=O)CN1CCC(c2ccc(F)cc2)CC1 [CBK285475]	108
Nc1ncc(-c2ccco2)nc1NCc1ccco1 [CBK063682]	91.8
CCOC(=O)CCSc1c(CC)c(C)nc2ccccc12 [CBK153457T]	93.5
COC(=O)c1sc2cc(C(F)(F)F)cnc2c1-c1cccnc1 [CBK089885]	112
O=S(=O)(NC1CCN(Cc2ccccc2)CC1)c1cccc2nonc12 [CBK062030]	94.6

SMILES	viability at 28.5 h, 10 µM [%]
Cc1cccc2cc(CN(Cc3ccco3)C(=O)C3CCCCC3)c(O)nc12 [CBK269178]	102
O=C(CCCOc1ccc(Cl)cc1Cl)Nc1ccc(O)cc1C(=O)O [CBK131688]	104
O=C(O)C(=O)N1CCN(C(=O)c2cc3ccccc3[nH]2)CC1 [CBK288433]	107
O=[N+]([O-])c1ccccc1S(=O)(=O)Nc1ccc(S(=O)(=O)Nc2ncccn2)cc1 [CBK264768]	109
O=C(CN1CCC(NC(=O)c2cccs2)CC1)NCc1ccccc1F [CBK304901]	97.2
CCOC(=O)c1sc(Sc2nnc(C(F)(F)F)n2C)c2c1CC(C)(C)CC2=O [CBK005649]	101
Cc1cc(C)c2c(N)c(C(=O)Nc3ccc(C(=O)O)cc3)sc2n1 [CBK300515]	100
O=C(O)c1ccc(N2C(=O)CC(N3CCN(Cc4ccc5c(c4)OCO5)CC3)C2=O)cc1 (centres unmarked) [CBK074573]	87.1
COc1cncc(-c2cnc(N)c(N[C@@H](CO)C(C)C)n2)c1 [CBK063734]	106
COc1ccc(CCN2C(=O)c3ccccc3C2(O)c2ncc[nH]2)cc1OC (centres unmarked) [CBK262717]	103
COc1cc(-c2cnc(N)c(N[C@H](CO)C(C)C)n2)cc(OC)c1OC [CBK063765]	113
O=S(=O)(NCc1ccccc1)N1CCCCCC1 [CBK269569]	101
CCNC(=O)Nc1ccc(-c2ccncc2)c2ccccc12 [CBK083720]	88.8
Cc1ccc(C(=O)NCC(O)c2ccc(F)cc2F)cn1 (centres unmarked) [CBK297751]	89.8
CC(C)(C)OC(=O)NC1CCC(NCc2cc(F)cc(F)c2)CC1 (centres unmarked) [CBK056689]	91.3
O=C(O)CCCn1c(=O)c2cc3c(=O)n(CCCC(=O)O)c(=O)c3cc2c1=O [CBK265748]	93.1
O=c1/c(=C/c2ccncc2)sc2n1CN(c1cccc(F)c1)CN=2 [CBK264340]	99.2
CCOc1ccc(CCC(=O)N2CCCc3c(cnn3C)C2)cc1 [CBK285276]	85.8
COc1ccc(C(=O)Nc2nc(OC)cnc2-c2ccsc2)cc1 [CBK145293]	81.4
Cc1cc(-c2nc3ncccc3o2)ccc1NC(=S)NC(=O)c1cc2ccccc2o1 [CBK268922]	83.1
c1ccc(COCCCN2CCC3(CC2)OCCc2c3[nH]c3ccccc23)cc1 [CBK040208]	84.8
Cc1cccn2c(CN3CCCOCC3)c(C(=O)N3CCOCC3)nc12 [CBK307144]	111
Oc1cc(-c2ccccc2Cl)[nH]n1 [CBK074226]	95.6

SMILES	viability at 28.5 h, 10 µM [%]
O=C(CCCn1cccn1)N1CCCN(Cc2ccc(F)cc2)CC1 [CBK304641]	99.7
c1cncc(-c2cnn(-c3ccc4[nH]ccc4c3)n2)c1 [CBK112820]	85.7
CCC(=O)OC1(C(=O)c2ccc(F)cc2)CCN(CCCC(c2ccc(F)cc2)c2ccc(F)cc2)CC1 [CBK025227C]	84.3
O=C(Nc1nn(Cc2c(F)cccc2Cl)cc1Cl)c1cccnc1 [CBK268154]	79.1
O=C(NCCCc1ccccn1)c1cnn(-c2ccc(F)cc2)c1 [CBK283287]	87.6
O=C1NC2(CCN(C(=O)CCc3ccc(-c4ccccc4)o3)CC2)Nc2ccccc21 [CBK286316]	106
CN(Cc1cccc(C#N)c1)Cc1nc2c(cnn2C)c(=O)[nH]1 [CBK305973]	109
COc1ccc(OCC(O)Cn2c(CCCO)nc3ccccc32)cc1 (centres unmarked) [CBK305579]	101
CCn1c2ccccc2c2cc(NC(=O)CC(C)CC(=O)O)ccc21 (centres unmarked) [CBK300031]	103
CCCC(=O)N1CCC([C@@H]2C[C@H](C(F)F)n3nc(C)cc3N2)CC1 [CBK284724]	97.6
COc1ccc(NC(=O)CCN2C(=O)c3ccccc3S2(=O)=O)cc1 [CBK265863]	87.1
CC(C)N(CCOc1nccnc1-c1ccsc1)C(C)C [CBK106777]	111
O=C(NCc1ccc(Cl)cc1)N1CCN(CCc2ccccc2)CC1 [CBK158922]	90.7
O=C1N[C@@H]2CCN(Cc3cnccn3)C[C@H]2C/C=C/CC2(CCOCC2)C(=O)N[C@H]1Cc1ccccc1 [CBK292189]	97.3
CN1CCOc2ccccc2C(=O)NC/C=C/CC2(CCN(C(=O)c3ccc(F)cc3)CC2)C1=O [CBK292055]	92
Cc1cc(NC(=O)CN(C)CC(=O)Nc2ccc(Br)cc2C)no1 [CBK260700]	92.9
Cc1cccc(C2CCCN(C(=O)Nc3cnn(C)c3)C2)c1 (centres unmarked) [CBK306961]	102
CCOCC1CN(c2cc(CO)c(F)cn2)CCO1 (centres unmarked) [CBK304756]	92
COc1ccccc1Oc1ccc(C(F)(F)F)cc1[N+](=O)[O-] [CBK002845]	99
CCOC(=O)CCNC(=O)/C=C/c1ccc(C(C)C)cc1 [CBK149643]	102
